Measurements reported in patent US20030013637A1, “Novel anti-autoimmune composition by inhibition of GRF action” (priority 2001, published 2003).

Tested on: EAE-induced PLSJLF1/J mice
Assay: Effect of GRF antagonist administration on experimental autoimmune encephalomyelitis (EAE) induced by rabbit MBP immunization and pertussis toxin
Assay type: in vivo
Description: In order to investigate the affect of the administration of GRF antagonist on the onset of autoimmune disease, studies were conducted using experimental autoimmune encephalomyelitis (EAE), which is an experimental animal model of human multiple sclerosis.
Wild mice (PLSJLF1/J) (females purchased from The Jackson Laboratory) were used in the experiment. The mice were purchased at five weeks of age, and were reared under artificial lighting from 8:00 am to 8:00 pm every day throughout the experiment. The animals were allowed free access to water and solid food (CE-2; Japan CLEA).
First, these mice (total ten animals) were sensitized by subcutaneous administration in the femoral area of 100 μL of an emulsion in a 1:1 mixture of complete Freund's adjuvant (CFA) (Difco Co.) to 2 mg/mL rabbit myelin basic protein (MBP) (manufactured by Sigma Co.) dissolved in physiological saline (manufactured by Otsuka Pharmaceutical Co. Ltd.). Pertussis toxin (manufactured by List Biological Laboratories) (200 ng) dissolved in physiological saline (manufactured by Otsuka Pharmaceutical Co. Ltd.) was intra-abdominally administered immediately after and two days after sensitization. In this manner, experimental autoimmune encephalomyelitis (EAE) was induced.
Next, GRF antagonist was administered in compliance with the following procedures. The mice (total of ten animals) that had been MBP sensitized and administered pertussis toxin were divided into two groups. One group (five animals) was subcutaneously administered in the dorsal neck region 30 μg of GRF antagonist (MZ-4-71; manufactured by the US company Calbiochem Novabiochem) per mouse once per day from the eighth to 15th day after MBP sensitization (MZ-4-71 administration group). The other group (five animals) was subcutaneously administered in the dorsal neck region an equal amount of physiological saline in the same way as a control once per day from the eighth to 15th day after MBP sensitization (saline administration group). All animals were allowed free access to food and water throughout the entire rearing period including during the aforementioned experimental period.
The body weight of each mouse was measured every day. The EAE symptoms were observed. and EAE symptom scores were recorded based on the following criteria.
0: No symptoms, 1: Paralysis of tail, 2: Mild paralysis of rear legs, 3: Moderate to severe paralysis of rear legs or mild paralysis of front legs, or both, 4: Complete paralysis of rear legs or moderate to severe paralysis of front legs, or both, 5: Paralysis of all four limbs or struggling with death, 6: Death

[Ibu^0, D-Arg^2, Phe(4-Cl)^6, Abu^15, Nle^27]hGHRH-(1-28)Agm [MZ-4-71]
beginning of EAE onset (PLSJLF1/J mice, 30 μg per mouse s.c. once per day, day 8 to 15 after MBP sensitization, FIG. 2(A)): 11 post-sensitization day | beginning of flare-ups (after remission, 30 μg per mouse s.c. once per day, day 8-15): 20 post-sensitization day | mean EAE score (beginning post-sensitization day 17, remissions in all the mice, 30 μg per mouse s.c. once per day, day 8-15): 0 | mean EAE score (post-sensitization day 13, 30 μg per mouse s.c. once per day, day 8-15, score scale 0-6): 0.3 | peak mean EAE score (post-sensitization day 23, peak over subsequent observation period, 30 μg per mouse s.c. once per day, day 8-15): 2.2 | EAE onset percentage (post-sensitization day 26, 30 μg per mouse s.c. once per day, day 8-15, FIG. 2(B)): not more than 60% | EAE scores compared to the saline administration group (time course of mean values, FIG. 2(A)): lower EAE scores | beginning of EAE onset compared to the saline administration group (time course of onset percentage, FIG. 2(B)): a delay in the beginning of EAE onset
